pEC50: −log10 of the molar value. Like-named read-outs stand apart in the source and are kept apart here. Starred links: 1 amine or outer side, 2 acyl side, 3 side chain; linkers in the order of their positions; H or OH if unused. Positions of bridges follow the written chain, without caps; N, C: chain ends. Non-standard residues stand in square brackets, D forms with d. Residues, ends and D or L forms follow the SMILES beside them. *: point of attachment. Ala(2-furyl) = N[C@@H](Cc1ccco1)C(=O)O; X2 = CONC(=O)CC[C@H](N[*:1])C(=O)[*:2]; Orn(iPr) = CC(C)NCCC[C@H](N)C(=O)O; X1 = CCNCCC[C@H](N[*:1])C(=O)[*:2]; Orn(Pr) = CCCNCCC[C@H](N)C(=O)O; 3Thi = N[C@@H](Cc1ccsc1)C(=O)O; NH(3-hydroxypropyl) = OCCCN*; Orn = NCCC[C@H](N)C(=O)O; Dab = NCC[C@H](N)C(=O)O
How the values were obtained:
[1] = molecular target: T1, hV1a receptor (Homo sapiens, UniProt P37288); assay: hV1a receptor transcriptional reporter (luciferase) agonist assay; assay type: cell-based
T1 construct: expressed in transfected cells; host or cells: HEK-293
T1 sequence (P37288 whole entry): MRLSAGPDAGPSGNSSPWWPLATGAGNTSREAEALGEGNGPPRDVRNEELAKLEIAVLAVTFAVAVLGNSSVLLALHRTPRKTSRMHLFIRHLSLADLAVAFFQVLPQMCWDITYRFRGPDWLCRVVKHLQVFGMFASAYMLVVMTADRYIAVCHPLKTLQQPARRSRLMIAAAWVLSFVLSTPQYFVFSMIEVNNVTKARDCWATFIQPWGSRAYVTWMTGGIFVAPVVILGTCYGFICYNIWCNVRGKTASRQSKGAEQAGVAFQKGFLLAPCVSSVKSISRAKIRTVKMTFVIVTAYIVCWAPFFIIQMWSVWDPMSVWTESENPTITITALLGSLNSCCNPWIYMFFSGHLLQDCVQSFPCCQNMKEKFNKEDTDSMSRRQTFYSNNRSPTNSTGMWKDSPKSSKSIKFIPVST

[2] = tested on: anaesthetised Sprague-Dawley male rats; assay: in vivo duration of action, blood pressure test in anaesthetised rats; parameters: species or system rat; conditions: ratio of decay rate of diastolic blood pressure response, AVP 0.1 nmol/kg i.v. to equieffective dose of compound; dibenamine-pretreated rats
Description: Blood pressure tests were carried out on anaesthetised Sprague-Dawley male rats (weighing 270-300 g) with catheterised jugular vein and carotid artery. The catheterised carotid artery was used to continuously monitor blood pressure and the jugular vein was used for administration of the compounds tested. Rats received intravenous injections of dibenamine prior to dosing to enhance their responsiveness to V1a receptor agonists (cf. Dekanski, J., Br. J. Pharmacol. 1952, 7, 567-572). […] Dosing intervals were set as time for the blood pressure to decrease to a stable baseline.
Determination of duration of action was based on the decay rate of diastolic arterial blood pressure transient increase. Specifically, for an exponential decay of plasma concentration, it can be shown that, if the response is measured beyond the distribution phase, the rate of decay near the EC50 is linear and inversely proportional to the elimination half-life (Rowland, M. and Tozer, T. in “Clinical Pharmacokinetics, Concepts and Applications”, 3rd ed., Lippincott Williams & Wilkins, Philadelphia, 1995).

[3] = molecular target: T2, human oxytocin (hOT) receptor (Homo sapiens, UniProt P30559); assay: luciferase-based transcriptional reporter assay, selectivity hOT versus hV1a; assay type: cell-based
T2 construct: expressed in transfected cells
T2 sequence (P30559 1-389): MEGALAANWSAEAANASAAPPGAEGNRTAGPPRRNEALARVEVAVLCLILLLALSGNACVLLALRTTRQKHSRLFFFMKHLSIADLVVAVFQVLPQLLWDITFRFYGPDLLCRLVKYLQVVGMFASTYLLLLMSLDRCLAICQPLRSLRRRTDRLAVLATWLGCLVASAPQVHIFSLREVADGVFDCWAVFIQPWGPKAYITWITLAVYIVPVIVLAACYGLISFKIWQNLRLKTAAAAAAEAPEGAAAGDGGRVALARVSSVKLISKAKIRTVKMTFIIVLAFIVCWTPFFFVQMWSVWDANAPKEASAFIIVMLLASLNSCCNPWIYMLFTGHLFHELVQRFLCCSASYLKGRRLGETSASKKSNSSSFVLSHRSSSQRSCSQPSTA

[4] = class symbol, agonist efficacy at hOT receptor compared to AVP
[5] = HEK-293 cells transiently transfected with hV1a receptor, 5 hours exposure, geometric mean, read-out: EC50 hV1a receptor

SMILES	pEC50 [1]	in vivo duration relative to AVP [2]	selectivity hOT/hV1a [3, 4]	pEC50 [1, 5]	selectivity hOT/hV1a ([3]; EC50 ratio)	selectivity hOT/hV1a [3]
NCCCC[C@H](NC(=O)[C@@H]1CCCN1C(=O)[C@@H]1CSSC[C@H](NC(=O)CNC(=O)CNC(=O)CN)C(=O)N[C@@H](Cc2ccc(O)cc2)C(=O)N[C@@H](Cc2ccccc2)C(=O)N[C@@H](CCC(N)=O)C(=O)N[C@@H](CC(N)=O)C(=O)N1)C(=O)NCC(N)=O [terlipressin, reference compound] (H-GGGCYFQNCPKG-NH2; disulfide 4-9)	7.09	9.1	+ (selective hV1a receptor agonist; EC50 hOT/hV1a ratio not determined due to very low agonist efficacy (<30% compared to AVP) at the hOT receptor)			
CC[C@H](C)[C@@H]1NC(=O)[C@H](Cc2ccsc2)NC(=O)[C@@H](N)CSSC[C@@H](C(=O)N2CCC[C@H]2C(=O)N[C@@H](CCN)C(=O)NCC(N)=O)NC(=O)[C@H](CC(N)=O)NC(=O)[C@H](CCC(N)=O)NC1=O [Compound 15] (H-C[3Thi]IQNCP[Dab]G-NH2; disulfide 1-6)		2.2		9.21	43	
CC[C@H](C)[C@@H]1NC(=O)[C@H](Cc2ccco2)NC(=O)[C@@H](N)CSSC[C@@H](C(=O)N2CCC[C@H]2C(=O)N[C@@H](CCN)C(=O)NCC(N)=O)NC(=O)[C@H](CC(N)=O)NC(=O)[C@H](CCC(N)=O)NC1=O [Compound 26] (H-C[Ala(2-furyl)]IQNCP[Dab]G-NH2; disulfide 1-6; N-terminus and C-terminus assumed)		2.0		8.65	28	
CCNCCC[C@H](NC(=O)[C@@H]1CCCN1C(=O)[C@@H]1CSSC[C@H](N)C(=O)N[C@@H](Cc2ccccc2)C(=O)N[C@@H]([C@@H](C)CC)C(=O)N[C@@H](CC(N)=O)C(=O)N[C@@H](CC(N)=O)C(=O)N1)C(=O)NCC(N)=O [Compound 47] (H-CFINNCP[X1]G-NH2; disulfide 1-6; N-terminus and C-terminus assumed)		1.6	+ (selective hV1a receptor agonist; EC50 hOT/hV1a ratio not determined due to very low agonist efficacy (<30% compared to AVP) at the hOT receptor)	9.00		
CC[C@H](C)[C@@H]1NC(=O)[C@H](Cc2ccccc2)NC(=O)[C@@H](N)CSSC[C@@H](C(=O)N2CCC[C@H]2C(=O)N[C@@H](CCCNC(C)C)C(=O)NCC(N)=O)NC(=O)[C@H](CC(N)=O)NC(=O)[C@H](CC(N)=O)NC1=O [Compound 41] (H-CFINNCP[Orn(iPr)]G-NH2; disulfide 1-6)	9.01	2.6				53
CC[C@H](C)[C@@H]1NC(=O)[C@H](Cc2ccccc2)NC(=O)[C@@H](N)CSSC[C@@H](C(=O)N2CCC[C@H]2C(=O)N[C@@H](CCCN)C(=O)NCC(N)=O)NC(=O)[C@H](CC(N)=O)NC(=O)[C@H](CCC(=O)NOC)NC1=O [Compound 10] (H-CFI[X2]NCP[Orn]G-NH2; disulfide 1-6; N-terminus and C-terminus assumed)		2.3		8.94	11	
CC[C@H](C)[C@@H]1NC(=O)[C@H](Cc2ccccc2)NC(=O)[C@@H](N)CSSC[C@@H](C(=O)N2CCC[C@H]2C(=O)N[C@@H](CCCN)C(=O)NCC(N)=O)NC(=O)[C@H](CC(N)=O)NC(=O)[C@H](CCC(=O)NC)NC1=O [Compound 19] (H-CFIE(NHMe)NCP[Orn]G-NH2; disulfide 1-6)		1.6	+ (selective hV1a receptor agonist; EC50 hOT/hV1a ratio not determined due to very low agonist efficacy (<30% compared to AVP) at the hOT receptor)	8.22		
CC[C@H](C)[C@@H]1NC(=O)[C@H](Cc2ccccc2)NC(=O)[C@@H](N)CSSC[C@@H](C(=O)N2CCC[C@H]2C(=O)N[C@@H](CCCN)C(=O)NCC(N)=O)NC(=O)[C@H](CC(N)=O)NC(=O)[C@H](CC(=O)NCCCO)NC1=O [Compound 2] (H-CFID(NH(3-hydroxypropyl))NCP[Orn]G-NH2; disulfide 1-6)	8.93	1.7				+ (key: +: selective hV1a receptor agonist; EC50 hOT/hV1a ratio not determined due to very low agonist efficacy (<30% compared to AVP) at the hOT receptor)
CCCNCCC[C@H](NC(=O)[C@@H]1CCCN1C(=O)[C@@H]1CSSC[C@H](N)C(=O)N[C@@H](Cc2ccccc2)C(=O)N[C@@H]([C@@H](C)CC)C(=O)N[C@@H](CCC(N)=O)C(=O)N[C@@H](CC(N)=O)C(=O)N1)C(=O)NCC(N)=O [Compound 40] (H-CFIQNCP[Orn(Pr)]G-NH2; disulfide 1-6; N-terminus and C-terminus assumed)	9.57	2.0			88	
CCCNCCC[C@H](NC(=O)[C@@H]1CCCN1C(=O)[C@@H]1CSSC[C@H](N)C(=O)N[C@@H](Cc2ccccc2)C(=O)N[C@@H]([C@@H](C)CC)C(=O)N[C@@H](CC(N)=O)C(=O)N[C@@H](CC(N)=O)C(=O)N1)C(=O)NCC(N)=O [Compound 50] (H-CFINNCP[Orn(Pr)]G-NH2; disulfide 1-6; N-terminus and C-terminus assumed)		2.4		8.82	43	
